Experimental findings from patent publication US20180099931A1 (AbbVie S.à.r.l., priority 2016, published 2018) are described below.

Where two headings read alike, the source gives them in different places.

This assay concerns the target T1, F508delCFTR (Homo sapiens, UniProt P13569, DEL508-508).
T1 construct: expressed in transfected cells; host or cells: CFBE41o- human lung-derived epithelial cells (CFBE4lo-F508delCFTR-HRP), doxycycline-inducible
Kind of assay: Cell Surface Expression-Horse Radish Peroxidase (CSE-HRP) Assay.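 For Maximum % activity (with co-corrector): co-corrector and positive control are both the same reference corrector at 2 µM.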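 For Maximum % activity (without co-corrector): percent of the 2 µM on-plate positive control corrector response above DMSO.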 Format: cell-based. The settings on record: for Emax / Maximum % activity (with co-corrector): maximum at any tested concentration, normalized to on-plate positive control; for Emax: read-out: Maximum % activity (without co-corrector).

Where [1] appears, read: test compound without co-corrector.
Setting [2] is: test compound without co-corrector, read-out: EC50 (without co-corrector).
Setting [3] is: with co-corrector (2 μM of 3-[(2R,4R)-4-({[1-(2,2-difluoro-1,3-benzodioxol-5-yl)cyclopropyl]carbonyl}amino)-7-methoxy-3,4-dihydro-2H-chromen-2-yl]benzoic acid).
[4] abbreviates: with co-corrector (2 μM of 3-[(2R,4R)-4-({[1-(2,2-difluoro-1,3-benzodioxol-5-yl)cyclopropyl]carbonyl}amino)-7-methoxy-3,4-dihydro-2H-chromen-2-yl]benzoic acid), read-out: EC50 (with co-corrector).
The mark [5] stands for this setting: CSE-HRP, test compound without co-corrector, read-out: EC50 (without co-corrector).
Setting [6] is: CSE-HRP, with co-corrector (2 μM of 3-[(2R,4R)-4-({[1-(2,2-difluoro-1,3-benzodioxol-5-yl)cyclopropyl]carbonyl}amino)-7-methoxy-3,4-dihydro-2H-chromen-2-yl]benzoic acid), read-out: EC50 (with co-corrector).
Where [7] appears, read: CSE-HRP, with co-corrector (2 μM).

T1 sequence (P13569 with tags, fused parts or gaps DEL508-508): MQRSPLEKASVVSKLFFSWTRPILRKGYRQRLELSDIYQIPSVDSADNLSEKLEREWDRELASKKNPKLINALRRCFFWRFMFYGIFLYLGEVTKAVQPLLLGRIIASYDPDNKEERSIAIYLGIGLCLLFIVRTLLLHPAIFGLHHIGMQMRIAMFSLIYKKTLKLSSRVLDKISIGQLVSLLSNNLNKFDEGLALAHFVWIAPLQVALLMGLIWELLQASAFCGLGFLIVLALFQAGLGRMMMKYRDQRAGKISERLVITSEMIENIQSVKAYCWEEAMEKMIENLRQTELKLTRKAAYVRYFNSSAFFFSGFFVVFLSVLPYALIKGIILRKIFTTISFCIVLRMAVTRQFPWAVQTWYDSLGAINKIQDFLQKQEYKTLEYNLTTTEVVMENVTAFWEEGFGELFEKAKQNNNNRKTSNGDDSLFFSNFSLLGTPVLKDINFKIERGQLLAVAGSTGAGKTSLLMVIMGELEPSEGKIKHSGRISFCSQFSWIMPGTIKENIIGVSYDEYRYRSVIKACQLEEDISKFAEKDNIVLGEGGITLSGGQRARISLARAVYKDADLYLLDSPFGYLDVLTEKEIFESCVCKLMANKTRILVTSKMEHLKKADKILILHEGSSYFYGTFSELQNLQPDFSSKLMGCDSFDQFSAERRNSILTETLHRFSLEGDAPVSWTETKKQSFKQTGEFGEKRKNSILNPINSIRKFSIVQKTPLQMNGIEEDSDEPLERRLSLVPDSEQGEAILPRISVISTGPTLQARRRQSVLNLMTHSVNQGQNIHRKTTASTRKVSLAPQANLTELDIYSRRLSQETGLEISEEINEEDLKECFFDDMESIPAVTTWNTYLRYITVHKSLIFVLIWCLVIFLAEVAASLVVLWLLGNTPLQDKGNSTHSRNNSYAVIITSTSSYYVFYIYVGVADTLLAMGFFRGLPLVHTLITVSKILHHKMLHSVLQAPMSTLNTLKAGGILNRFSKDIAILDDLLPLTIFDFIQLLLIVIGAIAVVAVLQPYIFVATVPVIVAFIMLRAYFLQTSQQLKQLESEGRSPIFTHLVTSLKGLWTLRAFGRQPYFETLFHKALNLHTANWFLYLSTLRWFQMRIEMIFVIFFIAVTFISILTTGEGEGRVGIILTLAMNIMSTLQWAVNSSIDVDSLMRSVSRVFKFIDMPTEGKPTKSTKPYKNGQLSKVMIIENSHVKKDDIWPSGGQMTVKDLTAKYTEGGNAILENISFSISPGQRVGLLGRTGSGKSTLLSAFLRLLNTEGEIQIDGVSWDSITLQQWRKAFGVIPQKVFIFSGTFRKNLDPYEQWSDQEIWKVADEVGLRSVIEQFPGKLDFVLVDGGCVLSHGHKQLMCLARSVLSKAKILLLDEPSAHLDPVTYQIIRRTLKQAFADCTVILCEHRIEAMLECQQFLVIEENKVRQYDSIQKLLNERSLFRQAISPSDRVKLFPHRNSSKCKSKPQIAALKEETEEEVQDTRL

With `COc1ncc(C(F)(F)F)cc1CN[C@H]1[C@H](C23CC(C2)C3)[C@@H](C(=O)O)N(C(=O)OC(C)C)[C@H]1c1ccccc1F` [II-544], the Emax under setting [1] lay in the range of 100 to 200%. Moreover, the EC50 (usually the concentration that produces a half-maximal response) under setting [2] lay within 1000 to 10000 nM and the EC50 under setting [4] lay within 1000 to 10000 nM. Besides, the “Maximum % activity (with co-corrector)” value under setting [3] was “+++ (≥350)”.
With `COc1ccc(C(C)(C)C)cc1CN[C@H]1[C@H](C(C)(C)C)[C@@H](C(=O)O)N(C(=O)[C@@H](Cc2ccccc2)OC)[C@H]1c1ccccc1` [Example 32, (2S,3S,4S,5S)-3-tert-butyl-4-{[(5-tert-butyl-2-methoxyphenyl)methyl]amino}-1-[(2R)-2-methoxy-3-phenylpropanoyl]-5-phenylpyrrolidine-2-carboxylic acid], the 50% effective concentration (EC50) by setting is: under setting [2], 1000 to 10000 nM; under setting [4], below 1000 nM. The “Maximum % activity (with co-corrector)” value (with co-corrector (2 μM)) is “+++ (≥350)”. Moreover, the Emax (without co-corrector) was above 200%.
As for `COc1ccc(C(F)(F)F)cc1CN[C@@H]1[C@@H](C(C)(C)C)[C@@H](C(=O)O)N(C(=O)[C@H](OC)c2ccccc2)[C@H]1c1ccccc1` [II-395], the Emax under setting [1] is below 100%. The EC50 under setting [2] is 1000 to 10000 nM and the EC50 under setting [4] is 1000 to 10000 nM. In addition, under setting [3], the “Maximum % activity (with co-corrector)” value is “++ (≥150 and <350)”.
On to `COc1ccc(C(C)(C)C)cc1CN[C@H]1[C@H](C(C)(C)C)[C@@H](C(=O)O)N(C(=O)c2cccc(Cn3cncn3)c2)[C@H]1c1ccccc1` [II-225], for which the EC50 is 1000 to 10000 nM under setting [5] and 1000 to 10000 nM under setting [6]. In addition, the “Maximum % activity (with co-corrector)” value under setting [7] is “+++ (≥350)”. Moreover, the Emax (CSE-HRP, without co-corrector) fell in the range of 100 to 200%.
For `COc1ccc(C(C)(C)C)cc1CN[C@H]1[C@H](C(C)(C)C)[C@@H](C(=O)O)N(C(=O)OC(C)C)[C@H]1c1cccc(Cl)c1` [Example 86, (2S,3S,4S,5S)-3-tert-butyl-4-{[(5-tert-butyl-2-methoxyphenyl)methyl]amino}-5-(3-chlorophenyl)-1-{[(propan-2-yl)oxy]carbonyl}pyrrolidine-2-carboxylic acid], the EC50 under setting [2] lay in the range of 1000 to 10000 nM and the EC50 under setting [4] was below 1000 nM. For the same compound, the “Maximum % activity (with co-corrector)” value (with co-corrector (2 μM)) is reported as “+++ (≥350)”. For the setting “without co-corrector”, the Emax is above 200%.
`COc1ccc(Cl)cc1CN[C@@H]1[C@@H](C(C)(C)OC)[C@H](C(=O)O)N(C(=O)C2CCCCC2)[C@@H]1c1ccccc1` (racemic) [II-79]: the EC50 was 1000 to 10000 nM under setting [5] and 1000 to 10000 nM under setting [6]. Further, under setting [7], the “Maximum % activity (with co-corrector)” value was “+++ (≥350)”. Further, under “CSE-HRP, without co-corrector”, the Emax was above 200%.
`COc1nc(C(C)(C)C)ccc1CN[C@H]1[C@H](C(C)(C)C)[C@@H](C(=O)O)N(C(=O)C2CCCCO2)[C@H]1c1ccccc1C(C)C` (stereo partly drawn) [Example I-177]: the EC50 under setting [2] is below 1000 nM and the EC50 under setting [4] was below 1000 nM. Also, the “Maximum % activity (with co-corrector)” value (with co-corrector (2 μM)) is given as “+++ (≥350)”. Moreover, the Emax (without co-corrector) was above 200%.
On to `COc1ccc(C(C)(C)C)cc1CN[C@H]1[C@H](C(C)(C)C)[C@@H](C(=O)O)N(C(=O)C2CCC(OC)CC2)[C@H]1c1ccccc1` (stereo partly drawn) [II-214], for which the EC50 under setting [5] fell in the range of 1000 to 10000 nM and the EC50 under setting [6] fell in the range of 1000 to 10000 nM. For the same compound, the “Maximum % activity (with co-corrector)” value under setting [7] was “+++ (≥350)”. Besides, the Emax (CSE-HRP, without co-corrector) was above 200%.
With `COc1ccc(Cl)cc1CN[C@H]1[C@H](C(C)(C)C)[C@@H](C(=O)O)N(C(=O)OC(C)C)[C@H]1c1ccccc1C(C)C` [II-567], under setting [1], the Emax is above 200%. Further, the EC50 was 1000 to 10000 nM under setting [2] and 1000 to 10000 nM under setting [4]. Under setting [3], the “Maximum % activity (with co-corrector)” value is recorded as “+++ (≥350)”.
Take `COc1ccc(C(C)(C)C)cc1CN[C@H]1[C@H](C(C)(C)C)[C@@H](C(=O)O)N(C(=O)CC2C=CCCC2)[C@H]1c1ccccc1` (stereo partly drawn) [II-212]: the EC50 was in the range of 1000 to 10000 nM under setting [5] and 1000 to 10000 nM under setting [6]. Also, under setting [7], the “Maximum % activity (with co-corrector)” value is given as “+++ (≥350)”. Also, the Emax (CSE-HRP, without co-corrector) is above 200%.
Regarding `COc1ccc(C(C)(C)C)cc1CN[C@H]1[C@H](C(C)(C)C)[C@@H](C(=O)O)N(C(=O)OC(C)(C)C)[C@H]1c1cccnc1OC` [Example I-232], the EC50 lay in the range of 1000 to 10000 nM under setting [2] and 1000 to 10000 nM under setting [4]. The “Maximum % activity (with co-corrector)” value (with co-corrector (2 μM)) is “+++ (≥350)”. Further, under “without co-corrector”, the Emax is above 200%.
For `Cc1cc(C(F)(F)F)cc(N[C@@H]2[C@@H](C(C)(C)C)[C@H](C(=O)O)N(C(=O)[C@H]3C[C@H]4CC[C@@H]3C4)[C@@H]2c2ccccc2)n1` (racemic) [III-110], the Emax under setting [1] is below 100%. The EC50 was above 10000 nM under setting [2] and 1000 to 10000 nM under setting [4]. For the same compound, the “Maximum % activity (with co-corrector)” value (with co-corrector (2 μM)) is “++ (≥150 and <350)”.
As for `COc1cc(C(F)(F)F)ccc1CN[C@@H]1[C@@H](C(C)(C)C)[C@H](C(=O)O)N(C(=O)C2CCC3(CC2)CC3)[C@@H]1c1ccccc1` (racemic) [III-105], under setting [1], the Emax is below 100%. Further, the EC50 under setting [2] fell in the range of 1000 to 10000 nM and the EC50 under setting [4] lay within 1000 to 10000 nM. Further, under “with co-corrector (2 μM)”, the “Maximum % activity (with co-corrector)” value is “++ (≥150 and <350)”.
As for `COc1ccc(C(C)(C)C)cc1CN[C@H]1[C@H](C(C)(C)C)[C@@H](C(=O)O)N(C(=O)C2Cc3ccccc3S2)[C@H]1c1ccccc1` (stereo partly drawn) [II-314], the EC50 was 1000 to 10000 nM under setting [5] and below 1000 nM under setting [6]. Under setting [7], the “Maximum % activity (with co-corrector)” value is reported as “+++ (≥350)”. Besides, the Emax (CSE-HRP, without co-corrector) was above 200%.
In the case of `CC(C)(C)[C@H]1[C@H](Nc2cc(C(F)(F)F)cc(C3CCC3)n2)[C@H](c2ccccc2)N(C(=O)C2CCCCC2)[C@@H]1C(=O)O` [Example I-67], the EC50 fell in the range of 1000 to 10000 nM under setting [2] and 1000 to 10000 nM under setting [4]. The “Maximum % activity (with co-corrector)” value (with co-corrector (2 μM)) is on record as “+++ (≥350)”. Also, where the note is “without co-corrector”, the Emax is below 100%.
With `COc1ncc(-c2ccc(F)cc2C)cc1CN[C@H]1[C@H](C(C)(C)C)[C@@H](C(=O)O)N(C(=O)C2CCCCC2)[C@H]1c1cccnc1N(C)C` [II-409], under setting [1], the Emax lay within 100 to 200%. In addition, the EC50 is, setting by setting: under setting [2], 1000 to 10000 nM; under setting [4], below 1000 nM. Besides, the “Maximum % activity (with co-corrector)” value under setting [3] was “+++ (≥350)”.
Take `COc1ncc(C2CC3CCC2C3)cc1CN[C@H]1[C@H](C(C)(C)OC)[C@@H](C(=O)O)N(C(=O)C2CCCCC2)[C@H]1c1ccccc1` (stereo partly drawn) [II-251]: the EC50 by setting is: under setting [5], below 1000 nM; under setting [6], below 1000 nM. Also, the “Maximum % activity (with co-corrector)” value under setting [7] is reported as “+++ (≥350)”. Further, the Emax (CSE-HRP, without co-corrector) was in the range of 100 to 200%.
For `COc1ccc(C(C)(C)C)cc1CN[C@H]1[C@H](C(C)(C)C)[C@@H](C(=O)O)N(C(=O)C(C)Oc2ccc(F)cc2)[C@H]1c1ccccc1` (stereo partly drawn) [II-310], the EC50 is 1000 to 10000 nM under setting [5] and below 1000 nM under setting [6]. Moreover, the “Maximum % activity (with co-corrector)” value under setting [7] is recorded as “+++ (≥350)”. Further, the Emax (CSE-HRP, without co-corrector) was above 200%.
In the same order, the values of `COc1ccc(C2CCCC2)cc1CN[C@H]1[C@H](C(C)(C)OC)[C@@H](C(=O)O)N(C(=O)C2CCCCC2)[C@H]1c1ccccc1` [II-256] are below 1000 nM, below 1000 nM, “+++ (≥350)” and above 200%.
The corresponding values for `COc1ccc(C2CCCC2)cc1CN[C@H]1[C@H](C(C)(C)C)[C@@H](C(=O)O)N(C(=O)C2CCCCC2)[C@H]1c1ccccc1` [II-193] are below 1000 nM, below 1000 nM, “+++ (≥350)” and above 200%.
Take `COc1ncc(C(C)(C)C)cc1CN[C@H]1[C@H](C(C)(C)C)[C@@H](C(=O)O)N(C(=O)C2CCCCC2)[C@H]1c1ccccc1F` [II-351]: under setting [1], the Emax is 100 to 200%. For the same compound, the EC50 under setting [2] is below 1000 nM and the EC50 under setting [4] is below 1000 nM. For the same compound, under setting [3], the “Maximum % activity (with co-corrector)” value is “+++ (≥350)”.
As for `COc1nc(C(C)(C)C)ccc1CN[C@H]1[C@H](C(C)(C)C)[C@@H](C(=O)O)N(C(=O)C2Cc3ccccc3O2)[C@H]1c1ccccc1` (single isomer, unassigned) [II-430], under setting [1], the Emax was below 100%. Moreover, the EC50 under setting [2] was below 1000 nM. In addition, the “Maximum % activity (with co-corrector)” value under setting [3] is “++ (≥150 and <350)”.
In the case of `COc1ccc(C(C)(C)C)cc1CN[C@H]1[C@H](C(C)(C)C)[C@@H](C(=O)O)N(C(=O)C2CCCCC2)[C@H]1c1cccn(C)c1=O` (racemic) [Example III-228, rac-(2S,3S,4S,5S)-3-tert-butyl-4-{[(5-tert-butyl-2-methoxyphenyl)methyl]amino}-1-(cyclohexanecarbonyl)-5-(1-methyl-2-oxo-1,2-dihydropyridin-3-yl)pyrrolidine-2-carboxylic acid], the Emax under setting [1] is below 100%. The EC50 is above 10000 nM under setting [2] and above 10000 nM under setting [4]. Under “with co-corrector (2 μM)”, the “Maximum % activity (with co-corrector)” value is listed as “+ (<150)”.
As for `COc1cc(C(C)(C)C)ccc1CN[C@H]1[C@H](C(C)(C)C)[C@@H](C(=O)O)N(C(=O)C2CCCCC2)[C@H]1c1ccccc1OC(F)F` [II-124], the EC50 was below 1000 nM under setting [5] and below 1000 nM under setting [6]. Further, the “Maximum % activity (with co-corrector)” value under setting [7] is listed as “+++ (≥350)”. Further, the Emax (CSE-HRP, without co-corrector) was in the range of 100 to 200%.
Turning to `COc1ccc(C(F)(F)F)cc1CN[C@H]1[C@H](C(C)(C)C)[C@@H](C(=O)O)N(C(=O)C(Oc2ccc(Cl)cc2)C(C)C)[C@H]1c1ccccc1` (stereo partly drawn) [II-399], under setting [1], the Emax was 100 to 200%. In addition, the EC50 is below 1000 nM under setting [2] and below 1000 nM under setting [4]. Moreover, under setting [3], the “Maximum % activity (with co-corrector)” value was “+++ (≥350)”.
